Assay results: the NIST ThermoML archive (doi:10.1021/je100765j)

Experiment: xn = mol fraction of the nth substance listed
Conditions: 101 kPa, Liquid; for speed of sound: Sing-around technique in a fixed-path interferometer

CC(C)(C)Cl [2-chloro-2-methylpropane] + CC(C)OC(C)C
Conditions | mass density [kg/m3] | speed of sound [m/s]
283.15 K, x1 = 0.049 | 738.51 | 1064.9
283.15 K, x1 = 0.0996 | 743.477 | 1064.1
283.15 K, x1 = 0.1991 | 753.625 | 1062.7
283.15 K, x1 = 0.3212 | 766.738 | 1060.7
283.15 K, x1 = 0.4189 | 777.752 | 1059.1
283.15 K, x1 = 0.5148 | 789.053 | 1057.4
283.15 K, x1 = 0.6213 | 802.211 | 1055.4
283.15 K, x1 = 0.7152 | 814.386 | 1053.5
283.15 K, x1 = 0.8138 | 827.84 | 1051.4
283.15 K, x1 = 0.9079 | 841.342 | 1049.2
283.15 K, x1 = 0.9552 | 848.393 | 1048.1
288.15 K, x1 = 0.049 | 733.338 | 1042.5
288.15 K, x1 = 0.0996 | 738.271 | 1041.8
288.15 K, x1 = 0.1991 | 748.35 | 1040.4
288.15 K, x1 = 0.3212 | 761.373 | 1038.5
288.15 K, x1 = 0.4189 | 772.305 | 1037
288.15 K, x1 = 0.5148 | 783.527 | 1035.4
288.15 K, x1 = 0.6213 | 796.59 | 1033.5
288.15 K, x1 = 0.7152 | 808.683 | 1031.8
288.15 K, x1 = 0.8138 | 822.038 | 1029.8
288.15 K, x1 = 0.9079 | 835.444 | 1027.7
288.15 K, x1 = 0.9552 | 842.442 | 1026.6
293.15 K, x1 = 0.049 | 728.121 | 1020
293.15 K, x1 = 0.0996 | 733.024 | 1019.4
293.15 K, x1 = 0.1991 | 743.024 | 1018
293.15 K, x1 = 0.3212 | 755.959 | 1016.3
293.15 K, x1 = 0.4189 | 766.815 | 1014.9
293.15 K, x1 = 0.5148 | 777.959 | 1013.4
293.15 K, x1 = 0.6213 | 790.929 | 1011.6
293.15 K, x1 = 0.7152 | 802.935 | 1010
293.15 K, x1 = 0.8138 | 816.189 | 1008.1
293.15 K, x1 = 0.9079 | 829.491 | 1006.1
293.15 K, x1 = 0.9552 | 836.437 | 1005.1
298.15 K, x1 = 0.049 | 722.867 | 997.71
298.15 K, x1 = 0.0996 | 727.738 | 997.09
298.15 K, x1 = 0.1991 | 737.666 | 995.89
298.15 K, x1 = 0.3212 | 750.506 | 994.32
298.15 K, x1 = 0.4189 | 761.286 | 993.03
298.15 K, x1 = 0.5148 | 772.351 | 991.68
298.15 K, x1 = 0.6213 | 785.228 | 990.11
298.15 K, x1 = 0.7152 | 797.145 | 988.62
298.15 K, x1 = 0.8138 | 810.301 | 986.91
298.15 K, x1 = 0.9079 | 823.502 | 985.13
298.15 K, x1 = 0.9552 | 830.397 | 984.18
303.15 K, x1 = 0.049 | 717.578 | 975.46
303.15 K, x1 = 0.0996 | 722.411 | 974.84
303.15 K, x1 = 0.1991 | 732.264 | 973.65
303.15 K, x1 = 0.3212 | 745.015 | 972.13
303.15 K, x1 = 0.4189 | 755.716 | 970.88
303.15 K, x1 = 0.5148 | 766.702 | 969.59
303.15 K, x1 = 0.6213 | 779.48 | 968.1
303.15 K, x1 = 0.7152 | 791.311 | 966.67
303.15 K, x1 = 0.8138 | 804.371 | 965.04
303.15 K, x1 = 0.9079 | 817.469 | 963.34
303.15 K, x1 = 0.9552 | 824.312 | 962.38
308.15 K, x1 = 0.049 | 712.24 | 953.42
308.15 K, x1 = 0.0996 | 717.041 | 952.84
308.15 K, x1 = 0.1991 | 726.821 | 951.71
308.15 K, x1 = 0.3212 | 739.479 | 950.28
308.15 K, x1 = 0.4189 | 750.102 | 949.13
308.15 K, x1 = 0.5148 | 761.005 | 947.93
308.15 K, x1 = 0.6213 | 773.688 | 946.56
308.15 K, x1 = 0.7152 | 785.433 | 945.25
308.15 K, x1 = 0.8138 | 798.394 | 943.74
308.15 K, x1 = 0.9079 | 811.393 | 942.17
308.15 K, x1 = 0.9552 | 818.179 | 941.27
313.15 K, x1 = 0.049 | 706.86 | 931.51
313.15 K, x1 = 0.0996 | 711.627 | 930.96
313.15 K, x1 = 0.1991 | 721.331 | 929.87
313.15 K, x1 = 0.3212 | 733.893 | 928.52
313.15 K, x1 = 0.4189 | 744.44 | 927.44
313.15 K, x1 = 0.5148 | 755.257 | 926.35
313.15 K, x1 = 0.6213 | 767.848 | 925.1
313.15 K, x1 = 0.7152 | 779.502 | 923.88
313.15 K, x1 = 0.8138 | 792.364 | 922.47
313.15 K, x1 = 0.9079 | 805.264 | 921
313.15 K, x1 = 0.9552 | 811.999 | 920.15
